According to paper PMC7412065, “In Vitro Antimicrobial and Antiproliferative Activities of the Root Bark Extract and Isolated Chemical Constituents of Zanthoxylum paracanthum Kokwaro (Rutaceae)” (Plants, 2020):
Values after ≈ are worked out from the molar mass of the structure shown. Where two headings read alike, the source gives them in different places.

Assays:
[1] = tested on: methicillin resistant Staphylococcus aureus (MRSA), un-typed isolate; experiment: Broth dilution MIC against MRSA; assay type: cell-based; details: for MIC: Staphylococcus aureus, MRSA, read-out: Antimicrobial minimal inhibition concentration (MIC), MRSA; for MIC / Antimicrobial minimal inhibition concentration (MIC), MRSA: 24 h; for Growth inhibition of MRSA (in words): up to 1000 µg/mL
[2] = tested on: human prostate cancer cell line (DU 145); experiment: MTT antiproliferative assay, prostate cancer cells; assay type: cell-based; details: for IC50: Homo sapiens; for Selectivity Indexes DU 145: SI = CC50 (Vero E6) / IC50 (DU 145)
[3] = tested on: Escherichia coli (ATCC 25922); experiment: Broth dilution MIC against E. coli; assay type: cell-based; details: for MIC: Escherichia coli, read-out: Antimicrobial minimal inhibition concentration (MIC), E. coli
[4] = tested on: human breast cancer cell line (HCC 1395); experiment: MTT antiproliferative assay, breast cancer cells; assay type: cell-based; details: for IC50: Homo sapiens; for Selectivity Indexes HCC 1395: SI = CC50 (Vero E6) / IC50 (HCC 1395)
[5] = tested on: MRSA; design: method as in PMID 22864735; details: compound isolated from Zanthoxylum rhetsa roots; cited from earlier work
[6] = MTT cytotoxicity assay, normal cell line; details: African green monkey
[7] = tested on: Staphylococcus aureus (ATCC 29213); experiment: Broth dilution MIC against S. aureus; assay type: cell-based; details: for MIC: Staphylococcus aureus, ATCC29213, 24 h, read-out: Antimicrobial minimal inhibition concentration (MIC), S. aureus
[8] = tested on: E. coli; design: method as in PMID 22864735; details: compound isolated from Zanthoxylum rhetsa roots; cited from earlier work
[9] = tested on: Candida albicans (ATCC 10231); experiment: Broth dilution MIC against C. albicans; assay type: cell-based; details: for MIC: Candida albicans, read-out: Antimicrobial minimal inhibition concentration (MIC), C. albicans; for Growth inhibition of C. albicans (in words): up to 1000 µg/mL
[10] = tested on: Clostridium sporogenes; design: method as in PMID 25546028; details: cited from earlier work
[11] = tested on: Streptococcus pyogenes; design: method as in PMID 25546028; details: cited from earlier work
[12] = in vitro; details: African green monkey
[13] = DU-145, MTT assay, Mean ± SEM, triplicate, read-out: IC50 Cancerous Cell Lines DU 145
[14] = ATCC25922, ATCC 25922, broth two-fold dilution, 37 °C, 24 h
[15] = HCC1395, MTT assay, Mean ± SEM, triplicate, read-out: IC50 Cancerous Cell Lines HCC 1395
[16] = ATCC 29213, broth two-fold dilution, 37 °C, 24 h
[17] = ATCC10231, ATCC 10231, broth two-fold dilution, 30 °C, 72 h
[18] = Vero E6 cells (normal cell line)

Compound	IC50 [2, 13] [µg/mL]	Selectivity Indexes DU 145 [2]	MIC [3, 14] [µg/mL]	IC50 [4, 15] [µg/mL]	Selectivity Indexes HCC 1395 [4]	MIC [7, 16] [µg/mL]	MIC [9, 17] [µg/mL]	MIC ([1]; broth two-fold dilution, 37 °C) [µg/mL]	Antimicrobial minimal inhibition concentration (MIC), MRSA ([1]; broth two-fold dilution, 37 °C) [µg/mL]	CC50 at 48 h [6, 18] [µg/mL]	other results
COc1ccc2c(c1OC)C(CC(C)=O)N(C)c1c-2ccc2cc3c(cc12)OCO3 (centres unmarked) [8-acetonyldihydrochelerythrine (4), 8-acetonyldihydrochelerythrine]	66.82 ± 0.58 (≈ 165 µM)	0.72	15.6 (≈ 38.5 µM)	9.99 ± 0.6 (≈ 24.6 µM)	4.79	15.6 (≈ 38.5 µM)	62.5 (≈ 154 µM)	–	–	–	MIC [1]: 31.2 µg/mL (≈ 77.1 µM); MIC against MRSA [5]: 8 µg/mL (≈ 19.7 µM); CC50 at 48 h [6]: 47.8 ± 1.15 µg/mL (≈ 118 µM); MIC against E. coli [8]: 16 µg/mL (≈ 39.5 µM)
COc1ccc2c(c1OC)c(=O)n(C)c1c3cc4c(cc3ccc21)OCO4 [8-oxochelerythrine (8), 8-oxochelerythrine]	63.4 ± 1.1 (≈ 175 µM)	2.13	3.91 (≈ 10.8 µM)	14.1 ± 0.3 (≈ 38.8 µM)	9.60	–	15.6 (≈ 43 µM)	62.5 (≈ 172 µM)	62.50	135.32 ± 0.12 (≈ 372 µM)	MIC against Clostridium sporogenes [10]: 0.91 µM (≈ 0.331 µg/mL); MIC against Streptococcus pyogenes [11]: 3.64 µM (≈ 1.32 µg/mL)
COc1ccc2c(c1)c1ccnc3ccc(=O)n2c31 [10-methoxycanthin-6-one (6), 10-methoxycanthin-6-one]	1.58 (≈ 6.31 µM)	34.15	3.91 (≈ 15.6 µM)	14.7 ± 0.5 (≈ 58.7 µM)	3.67	1.95 (≈ 7.79 µM)	7.81 (≈ 31.2 µM)	3.91 (≈ 15.6 µM)	–	53.95 ± 0.38 (≈ 216 µM)	–
COc1cccc2c1C(=O)c1c(O)c3c(c(O)c1C2=O)C[C@@](O)(C(=O)CO)C[C@@H]3O[C@H]1C[C@H](N)[C@H](O)[C@H](C)O1 [Doxorubicin, reference compound]	0.59 ± 0.01 (≈ 1.09 µM)	0.51	–	0.21 ± 0.2 (≈ 0.386 µM)	1.41	–	–	–	–	–	CC50 at 48 h [12]: 0.3 ± 0.12 µg/mL (≈ 0.552 µM)
OC(Cn1cncn1)(Cn1cncn1)c1ccc(F)cc1F [Fluconazole, reference compound]	–	–	–	–	–	–	1.95 (≈ 6.37 µM)	–	–	–	–
O=c1ccc2nccc3c4ccccc4n1c23 [canthin-6-one (7), canthin-6-one]	9.43 ± 0.01 (≈ 42.8 µM)	4.43	1.95 (≈ 8.85 µM)	8.12 ± 0.6 (≈ 36.9 µM)	5.15	0.48 (≈ 2.18 µM)	3.91 (≈ 17.8 µM)	0.97 (≈ 4.4 µM)	0.98	41.8 ± 0.64 (≈ 190 µM)	Antimicrobial minimal inhibition concentration (MIC), S. aureus [7, 16]: 0.49 µg/mL
CCCCCCCCCCCCCC(=O)O [myristic acid (1), myristic acid]	80.24 ± 0.12 (≈ 351 µM)	0.81	> 1000	57.7 ± 1.2 (≈ 253 µM)	1.12	> 1000	> 1000	> 1000	–	64.86 ± 0.51 (≈ 284 µM)	–
c1cc2c(cc1[C@H]1OC[C@H]3[C@@H]1CO[C@@H]3c1ccc3c(c1)OCO3)OCO2 [sesamin (3), sesamin]	115.06 ± 0.03 (≈ 325 µM)	1.18	> 1000	3.39 ± 1 (≈ 9.57 µM)	39.97	500 (≈ 1410 µM)	> 1000	> 1000	–	–	Growth inhibition of MRSA (in words) [1]: no activity; CC50 at 48 h [12]: 135.31 ± 0.12 µg/mL (≈ 382 µM); Growth inhibition of E. coli (in words) ([3]; up to 1000 µg/mL): no activity; Growth inhibition of C. albicans (in words) [9]: no activity
CC[C@H](/C=C/[C@@H](C)[C@H]1CC[C@H]2[C@@H]3CC=C4C[C@@H](O)CC[C@]4(C)[C@H]3CC[C@]12C)C(C)C [stigmasterol (2), stigmasterol]	–	0.88	–	–	294.94	–	–	–	–	–	MIC [1]: > 1000 µg/mL; Growth inhibition of MRSA (in words) [1]: did not inhibit the growth; IC50 ([2]; DU-145, read-out: IC50 Cancerous Cell Lines DU 145): 140.5 ± 1.27 µg/mL (≈ 340 µM); MIC ([3]; ATCC25922, 24 h): 15.6 µg/mL (≈ 37.9 µM); IC50 ([4]; HCC1395, read-out: IC50 Cancerous Cell Lines HCC 1395): 0.42 ± 0.1 µg/mL (≈ 1.02 µM); CC50 at 48 h [6]: 124 µg/mL (≈ 300 µM); MIC [7]: 62.5 µg/mL (≈ 151 µM); MIC ([9]; ATCC10231, 72 h): > 1000 µg/mL; Growth inhibition of C. albicans (in words) [9]: did not inhibit the growth
Omacilin [reference compound]	–	–	–	–	–	–	–	–	0.98	–	Antimicrobial minimal inhibition concentration (MIC), E. coli ([3]; ATCC 25922, broth two-fold dilution, 37 °C, 24 h): 0.98 µg/mL; Antimicrobial minimal inhibition concentration (MIC), S. aureus [7, 16]: 0.49 µg/mL
